Consider three compounds from BindingDB's records for doi:10.1021/jm0491492 (Uppsala University, 2005).

The target in the test is Type-2 angiotensin II receptor (Sus scrofa). Put plainly: Displacement of [125I]-Ang II from angiotensin II receptor type 2 in pig uterus myometrium. In general terms: Displacement assays read how much labelled ligand stays bound in the presence of the test substance.

The structures appear in SMILES notation.

Compound `N=C(N)NCCC[C@H](NC(=O)[C@@H](N)CC(=O)O)C(=O)Nc1cccc2c1N[C@@H](Cc1ccc(O)cc1)C(=O)N(CC(=O)N[C@@H](Cc1cnc[nH]1)C(=O)N1CCC[C@H]1C(=O)N[C@@H](Cc1ccccc1)C(=O)O)C2` [(3S)-3-amino-3-{[(1S)-1-{[(2S)-4-({[(2S)-1-[(2S)-2-{[(1S)-1-carboxy-2-phenylethyl]carbamoyl}pyrrolidin-1-yl]-3-(1H-imidazol-4-yl)-1-oxopropan-2-yl]carbamoyl}methyl)-2-[(4-hydroxyphenyl)methyl]-3-oxo-2,3,4,5-tetrahydro-1H-1,4-benzodiazepin-9-yl]carbamoyl}-4-[(diaminomethylidene)amino]butyl]carbamoyl}propanoic acid] showed a Ki of 2.8 nM. In turn, `CC(C)[C@H](NC(=O)[C@H](C)NC(=O)[C@@H](N)CC(=O)O)C(=O)Nc1cccc2c1N[C@@H](Cc1ccc(O)cc1)C(=O)N(CC(=O)N[C@@H](Cc1cnc[nH]1)C(=O)N1CCC[C@H]1C(=O)N[C@@H](Cc1ccccc1)C(=O)O)C2` [(3S)-3-amino-3-{[(1S)-1-{[(1S)-1-{[(2S)-4-({[(2S)-1-[(2S)-2-{[(1S)-1-carboxy-2-phenylethyl]carbamoyl}pyrrolidin-1-yl]-3-(1H-imidazol-4-yl)-1-oxopropan-2-yl]carbamoyl}methyl)-2-[(4-hydroxyphenyl)methyl]-3-oxo-2,3,4,5-tetrahydro-1H-1,4-benzodiazepin-9-yl]carbamoyl}-2-methylpropyl]carbamoyl}ethyl]carbamoyl}propanoic acid] came in with a Ki of 9.3 nM. Under `CC(C)[C@H](NC(=O)[C@H](CCCNC(=N)N)NC(=O)[C@@H](N)CC(=O)O)C(=O)Nc1cccc2c1N[C@@H](Cc1ccc(O)cc1)C(=O)N(CC(=O)N[C@@H](Cc1cnc[nH]1)C(=O)N1CCC[C@H]1C(=O)N[C@@H](Cc1ccccc1)C(=O)O)C2` [(3S)-3-amino-3-{[(1S)-1-{[(1S)-1-{[(2S)-4-({[(2S)-1-[(2S)-2-{[(1S)-1-carboxy-2-phenylethyl]carbamoyl}pyrrolidin-1-yl]-3-(1H-imidazol-4-yl)-1-oxopropan-2-yl]carbamoyl}methyl)-2-[(4-hydroxyphenyl)methyl]-3-oxo-2,3,4,5-tetrahydro-1H-1,4-benzodiazepin-9-yl]carbamoyl}-2-methylpropyl]carbamoyl}-4-[(diaminomethylidene)amino]butyl]carbamoyl}propanoic acid] stands 0.8 nM.

The Ki is the dissociation constant of the complex between target and ligand, obtained from inhibition or displacement. A higher Ki goes with a looser hold on the target.
